Laboratory results: paper PMC12084609, “Structural insights into small-molecule agonist recognition and activation of complement receptor C3aR” (The EMBO Journal, 2025)
Residue numbers refer to the chain shown, from its start. Several values for one entry are separate records, joined by “and”; a condition that tells them apart may be missing. Identical values can stand only once. Like-named read-outs stand apart in the source and are kept apart here.

Columns and labels:
Format in all cases: cell-based
C3aR I421^7.39A = biological target: T1, C3aR I421^7.39A (Homo sapiens, UniProt Q16581, I421A); assay: GloSensor-based cAMP assay, C3aR mutant I421A
T1 construct: expressed in transfected cells; host or cells: HEK293T
T1 sequence (Q16581 1-482 I421A): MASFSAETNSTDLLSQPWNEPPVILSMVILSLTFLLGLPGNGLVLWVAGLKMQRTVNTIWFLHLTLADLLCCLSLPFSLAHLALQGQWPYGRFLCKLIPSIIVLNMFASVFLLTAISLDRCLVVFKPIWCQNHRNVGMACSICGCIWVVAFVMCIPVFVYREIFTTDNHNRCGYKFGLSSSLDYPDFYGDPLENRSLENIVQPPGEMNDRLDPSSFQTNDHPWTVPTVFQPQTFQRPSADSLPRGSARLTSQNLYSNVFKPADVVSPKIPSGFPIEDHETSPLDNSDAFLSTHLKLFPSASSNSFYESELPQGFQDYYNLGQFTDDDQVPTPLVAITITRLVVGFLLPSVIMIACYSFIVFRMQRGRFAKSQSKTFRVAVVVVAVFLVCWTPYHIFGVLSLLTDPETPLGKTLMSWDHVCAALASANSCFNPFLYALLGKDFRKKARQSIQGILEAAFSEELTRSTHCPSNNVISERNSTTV
Experimental: (§1) HEK293T cells were seeded on 6-well plates (NEST) and transfected with pGlosensor™-22F plasmids (Promega) and pcDNA3.1 plasmids encoding C3aR or its mutants an with N-terminal FLAG tag. After 48 h, cells were detached with Accutase solution (Sigma-Aldrich) and washed with PBS, and resuspended in assay buffer (CO2-independent medium with 0.5 mg mL^−1D-luciferin). 100,000–200,000 cells were seeded on 96-well white bottom plates (SPL) and incubated at 37 °C for 45 min followed by 45 min incubation at room temperature. After 90 min of incubation, basal luminescence signals were recorded. In total, 25 μl of test ligand with various concentrations and 1 μM Forskolin (Sigma-Aldrich) were treated to the cells and luminescence signals were measured by Tristar 2 LB 942 multimode reader (Berthold). […] Relative luminescence unit (%) was calculated with the signal of wells treated with vehicle as 0% and the signal of wells treated with 1 μM Forskolin as 100% (DiRaddo et al, [2014]). Nonlinear regression was performed using a three-parameter logistic equation.

C3aR P99^3.29A = biological target: T2, C3aR P99^3.29A (Homo sapiens, UniProt Q16581, P99A); assay: GloSensor-based cAMP assay, C3aR mutant P99A
T2 construct: expressed in transfected cells; host or cells: HEK293T
T2 sequence (Q16581 1-482 P99A): T1 sequence (Q16581 1-482 I421A) with P99A, A421I
Experimental: as §1

C3aR L30^1.39A = biological target: T3, C3aR L30^1.39A (Homo sapiens, UniProt Q16581, L30A); assay: GloSensor-based cAMP assay, C3aR mutant L30A
T3 construct: expressed in transfected cells; host or cells: HEK293T
T3 sequence (Q16581 1-482 L30A): T1 sequence (Q16581 1-482 I421A) with L30A, A421I
Experimental: as §1

[1] = Dunnett's multiple comparisons test, WT minus mutant

Cc1cc(C(c2ccc(Cl)cc2)c2ccc(Cl)cc2)sc1C(=O)N[C@@H](CCCNC(=N)N)C(=O)O [JR14a, reference compound]
Mean Diff. of pIC50, WT vs. I421A (C3aR I421^7.39A; [1]): 1.797
remaining activity at 0.01 µM (C3aR I421^7.39A; I421A, Log[JR14a (M)] -8, single replicates, read-out: cAMP response (% Forskolin)): 91.4%
remaining activity at 0.001 µM (C3aR I421^7.39A; I421A, Log[JR14a (M)] -9, single replicates, read-out: cAMP response (% Forskolin)): 92.7%
remaining activity at 0.0001 µM (C3aR I421^7.39A; I421A, Log[JR14a (M)] -10, single replicates, read-out: cAMP response (% Forskolin)): 96.4%
remaining activity at 10 pM (C3aR I421^7.39A; I421A, Log[JR14a (M)] -11, single replicates, read-out: cAMP response (% Forskolin)): 93.5%
reduction in ligand-induced signaling vs WT (C3aR I421^7.39A; I421^7.39A mutant): 60 fold
ΔpIC50 ± SE of Diff. (C3aR I421^7.39A; I421^7.39A relative to WT C3aR): -1.80 ± 0.06
IC50 (C3aR I421^7.39A; IC50, I421^7.39A, dose-response plot): 204 nM
IC50 (C3aR I421^7.39A; pIC50 (Replicate), I421^7.39A, individual replicates): 229 nM and 263 nM and 331 nM and 115 nM
IC50 (C3aR I421^7.39A; pIC50 ± SEM (Mean), I421^7.39A, mean of independent experiments): 219 nM
Mean Diff. of pIC50, WT vs. P99A (C3aR P99^3.29A; [1]): -0.103
IC50 (C3aR P99^3.29A; IC50, P99^3.29A, dose-response plot): 4.08 nM
remaining activity at 1 µM (C3aR P99^3.29A; P99A, Log[JR14a (M)] -6, single replicates, read-out: cAMP response (% Forskolin)): 8.38%
remaining activity at 0.1 µM (C3aR P99^3.29A; P99A, Log[JR14a (M)] -7, single replicates, read-out: cAMP response (% Forskolin)): 9.9%
remaining activity at 0.001 µM (C3aR P99^3.29A; P99A, Log[JR14a (M)] -9, single replicates, read-out: cAMP response (% Forskolin)): 77.4%
remaining activity at 0.0001 µM (C3aR P99^3.29A; P99A, Log[JR14a (M)] -10, single replicates, read-out: cAMP response (% Forskolin)): 102%
remaining activity at 10 pM (C3aR P99^3.29A; P99A, Log[JR14a (M)] -11, single replicates, read-out: cAMP response (% Forskolin)): 104%
ΔpIC50 ± SE of Diff. (C3aR P99^3.29A; P99^3.29A relative to WT C3aR): 0.10 ± 0.06
decrease in IC50 values vs WT (C3aR P99^3.29A; P99^3.29 to Ala, relatively mild effect on downstream signaling): < 10 fold
IC50 (C3aR P99^3.29A; pIC50 (Replicate), P99^3.29A, individual replicates): 4.9 nM and 5.25 nM and 2.69 nM
Mean Diff. of pIC50, WT vs. L30A (C3aR L30^1.39A; [1]): 0.012
IC50 (C3aR L30^1.39A; IC50, L30^1.39A, dose-response plot): 5.58 nM
remaining activity at 1 µM (C3aR L30^1.39A; L30A, Log[JR14a (M)] -6, single replicates, read-out: cAMP response (% Forskolin)): 12.9%
remaining activity at 0.1 µM (C3aR L30^1.39A; L30A, Log[JR14a (M)] -7, single replicates, read-out: cAMP response (% Forskolin)): 13.4%
remaining activity at 0.001 µM (C3aR L30^1.39A; L30A, Log[JR14a (M)] -9, single replicates, read-out: cAMP response (% Forskolin)): 82.6%
remaining activity at 0.0001 µM (C3aR L30^1.39A; L30A, Log[JR14a (M)] -10, single replicates, read-out: cAMP response (% Forskolin)): 97.9%
remaining activity at 10 pM (C3aR L30^1.39A; L30A, Log[JR14a (M)] -11, single replicates, read-out: cAMP response (% Forskolin)): 98.1%
ΔpIC50 ± SE of Diff. (C3aR L30^1.39A; L30^1.39A relative to WT C3aR): -0.01 ± 0.01
IC50 (C3aR L30^1.39A; pIC50 (Replicate), L30^1.39A, individual replicates): 8.91 nM and 6.92 nM
IC50 (C3aR L30^1.39A; pIC50 ± SEM (Mean), L30^1.39A, mean of independent experiments): 5.37 nM
IC50 (C3aR L30^1.39A; read-out: pIC50 (Replicate) (converted)): 2.51 nM
